Measured values published in patent US6737383B1, “Herbicidal oxadiazolidines” (priority 1999, dated 2004).

How the values were obtained:
[1] = tested on: bedstraw; assay: Test B pre/postemergence bedstraw; type: in vivo, Galium aparine
In short: (§1)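 Test chemicals in a non-phytotoxic solvent mixture with surfactant were sprayed preemergence onto planted seeds and postemergence onto plants 2 to 18 cm tall (1- to 4-leaf stage). After twelve to sixteen days in a greenhouse, injury was visually rated against untreated controls from 0 (no effect) to 10 (complete control).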

[2] = tested on: blackgrass; assay: Test B pre/postemergence blackgrass; type: in vivo, Alopecurus myosuroides
In short: as §1

[3] = tested on: surinam grass; assay: Test B pre/postemergence surinam grass; type: in vivo, Brachiaria decumbens
In short: as §1

[4] = tested on: cocklebur; assay: Test B pre/postemergence cocklebur; type: in vivo, Xanthium strumarium
In short: as §1

[5] = tested on: corn; assay: Test B pre/postemergence corn; type: in vivo, Zea mays
In short: as §1

[6] = tested on: crabgrass; assay: Test B pre/postemergence crabgrass; type: in vivo, Digitaria sanguinalis
In short: as §1

[7] = tested on: giant foxtail; assay: Test B pre/postemergence giant foxtail; type: in vivo, Setaria faberii
In short: as §1

[8] = tested on: morningglory; assay: Test B pre/postemergence morningglory; type: in vivo, Ipomoea hederacea
In short: as §1

[9] = tested on: pigweed; assay: Test B pre/postemergence pigweed; type: in vivo, Amaranthus retroflexus
In short: as §1

[10] = tested on: rape; assay: Test B pre/postemergence rape; type: in vivo, Brassica napus
In short: as §1

[11] = tested on: soybean; assay: Test B pre/postemergence soybean; type: in vivo, Glycine max
In short: as §1

[12] = tested on: sugar beet; assay: Test B pre/postemergence sugar beet; type: in vivo, Beta vulgaris
In short: as §1

[13] = tested on: velvetleaf; assay: Test B pre/postemergence velvetleaf; type: in vivo, Abutilon theophrasti
In short: as §1

[14] = tested on: wheat; assay: Test B pre/postemergence wheat; type: in vivo, Triticum aestivum
In short: as §1

[15] = tested on: wild oat; assay: Test B pre/postemergence wild oat; type: in vivo, Avena fatua
In short: as §1

[16] = tested on: purple nutsedge; assay: Test B pre/postemergence purple nutsedge; type: in vivo, Cyperus rotundus
In short: as §1

[17] = Postemergence, Rate 125 g/ha, scale of 0 to 10 where 0 is no effect and 10 is complete control
[18] = Postemergence, Rate 500 g/ha, scale 0 (no effect) to 10 (complete control)
[19] = Preemergence, Rate 250 g/ha, scale 0 (no effect) to 10 (complete control)
[20] = Rate 62 g/ha, Preemergence, scale 0 to 10
[21] = Rate 125 g/ha, Preemergence, scale 0 to 10 (0 no effect, 10 complete control)
[22] = Rate 500 g/ha, Preemergence, scale 0 to 10 (0 no effect, 10 complete control)
[23] = Postemergence, Rate 62 g/ha, scale 0 to 10, 0 is no effect, 10 is complete control
[24] = Rate 250 g/ha, Postemergence, scale 0 to 10, 0 is no effect, 10 is complete control

C#CC(C)n1c(=O)on(C(=O)N(c2ccc(F)cc2)C(C)C)c1=O (stereo not shown) [Compound 763]
7: Bedstraw plant response rating [1, 19] | Morningglory plant response rating [8, 17] | Morningglory plant response rating [8, 18] | Morningglory plant response rating [8, 24] | Wheat plant response rating [14, 22]
3: B. signalgrass plant response rating [3, 17] | Cocklebur plant response rating [4, 18] | Redroot pigweed plant response rating [9, 24] | Rape plant response rating [10, 18] | Soybean plant response rating [11, 24] | Sugarbeets plant response rating [12, 19] | Velvetleaf plant response rating [13, 22] | Wheat plant response rating [14, 18] | Nutsedge plant response rating [16, 24]
6: Bedstraw plant response rating [1, 21] | Plant response rating, Giant foxtail [7, 23] | Rape plant response rating [10, 19] | Sugarbeets plant response rating [12, 22] | Nutsedge plant response rating [16, 18]
0: Bedstraw plant response rating [1, 17] | Bedstraw plant response rating [1, 20] | Plant response rating, B. signalgrass [3, 23] | B. signalgrass plant response rating ([3]; Preemergence, Rate 62 g/ha, scale of 0 to 10 where 0 is no effect and 10 is complete control) | Plant response rating, Cocklebur [4, 23] | Cocklebur plant response rating [4, 17] | Cocklebur plant response rating [4, 19] | Cocklebur plant response rating [4, 20] | Cocklebur plant response rating [4, 21] | Cocklebur plant response rating [4, 22] | Plant response rating, Corn [5, 23] | Corn plant response rating [5, 17] | Corn plant response rating [5, 19] | Corn plant response rating [5, 20] | Corn plant response rating [5, 21] | Corn plant response rating [5, 24] | Corn plant response rating [5, 22] | Morningglory plant response rating [8, 19] | Morningglory plant response rating [8, 20] | Morningglory plant response rating [8, 21] | Plant response rating, Redroot pigweed [9, 23] | Redroot pigweed plant response rating [9, 17] | Plant response rating, Rape [10, 23] | Rape plant response rating [10, 17] | Rape plant response rating [10, 20] | Rape plant response rating [10, 24] | Soybean plant response rating [11, 19] | Soybean plant response rating [11, 20] | Soybean plant response rating [11, 21] | Soybean plant response rating [11, 22] | Plant response rating, Sugarbeets [12, 23] | Sugarbeets plant response rating [12, 20] | Sugarbeets plant response rating [12, 21] | Plant response rating, Velvetleaf [13, 23] | Velvetleaf plant response rating [13, 20] | Velvetleaf plant response rating [13, 24] | Plant response rating, Wheat [14, 23] | Wheat plant response rating [14, 20] | Wheat plant response rating [14, 21] | Plant response rating, Wild oats [15, 23] | Plant response rating, Nutsedge [16, 23] | Nutsedge plant response rating [16, 17] | Nutsedge plant response rating [16, 20]
9: Blackgrass plant response rating [2, 19] | Blackgrass plant response rating [2, 21] | B. signalgrass plant response rating [3, 19] | B. signalgrass plant response rating [3, 21] | Crabgrass plant response rating [6, 18] | Crabgrass plant response rating [6, 20] | Crabgrass plant response rating [6, 21] | Crabgrass plant response rating [6, 22] | Giant foxtail plant response rating [7, 18] | Giant foxtail plant response rating [7, 19] | Giant foxtail plant response rating [7, 20] | Giant foxtail plant response rating [7, 21] | Giant foxtail plant response rating [7, 24] | Giant foxtail plant response rating [7, 22] | Redroot pigweed plant response rating [9, 21] | Rape plant response rating [10, 22] | Wild oats plant response rating [15, 19] | Wild oats plant response rating [15, 22]
2: Corn plant response rating [5, 18] | Plant response rating, Crabgrass [6, 23] | Plant response rating, Morningglory [8, 23] | Plant response rating, Soybean [11, 23] | Sugarbeets plant response rating [12, 24] | Velvetleaf plant response rating [13, 18] | Wild oats plant response rating [15, 20]
10: Blackgrass plant response rating [2, 22] | Crabgrass plant response rating [6, 19] | Redroot pigweed plant response rating [9, 19] | Redroot pigweed plant response rating [9, 22]
4: Bedstraw plant response rating [1, 18] | Sugarbeets plant response rating [12, 18] | Wheat plant response rating [14, 24]
8: Bedstraw plant response rating [1, 22] | Blackgrass plant response rating [2, 20] | B. signalgrass plant response rating [3, 22] | Crabgrass plant response rating [6, 24] | Giant foxtail plant response rating [7, 17] | Redroot pigweed plant response rating [9, 18] | Redroot pigweed plant response rating [9, 20] | Wild oats plant response rating [15, 21]
5: Plant response rating, Blackgrass [2, 23] | Blackgrass plant response rating [2, 17] | Blackgrass plant response rating [2, 18] | Blackgrass plant response rating [2, 24] | B. signalgrass plant response rating [3, 24] | B. signalgrass plant response rating ([3]; Rate 500 g/ha, Postemergence, scale 0 to 10, 0 is no effect, 10 is complete control) | Crabgrass plant response rating [6, 17] | Morningglory plant response rating [8, 22] | Rape plant response rating [10, 21] | Soybean plant response rating [11, 18] | Wheat plant response rating [14, 19] | Nutsedge plant response rating [16, 22]
1: Cocklebur plant response rating [4, 24] | Velvetleaf plant response rating [13, 19] | Velvetleaf plant response rating [13, 21] | Wild oats plant response rating [15, 18]
